What follows are compounds tested on IL-2 secretion (assay: Inhibition of IL-2 secretion in PHA-stimulated Jurkat T cells (ELISA)). Settings: Homo sapiens, PHA stimulation, 20 to 24 hours, IL-2 by ELISA.
Format: cell-based
Description: The CRAC channel modulatory activity of the compounds were thus evaluated by measuring the secretion of IL-2 by antigen stimulated T-cells in vitro. Alternatively, such activity can also be evaluated by assay methods known to one skilled in the art.
Inhibition of IL-2 secretion: Jurkat T cells were seeded at a density of 0.5 to 1 million cells per well in RPMI medium. Test compounds from this invention were added to the cells at different concentrations. This was followed by the addition of PHA, a T cell mitogen after 10 minutes. The cells were then incubated for 20 to 24 hours in a CO2 incubator at 37° C. After incubation with the compounds, cells were centrifuged, the supernatant was collected and processed for ELISA to quantitate the amount of IL-2 secreted. A commercial ELISA kit (R&D Systems, Inc. Minneapolis, Minn., USA) was used to estimate the IL-2 concentrations. Amount of IL-2 secreted by cells stimulated with PHA was considered as a 100% maximal signal and the decrease in amount of IL-2 secreted by cells treated with the test compounds was expressed as percent inhibition of the maximal signal. The dose response data was analyzed using 4-parametric sigmoidal dose response (variable slope) curve—fit.

| SMILES | IC50 [nM] |
| --- | --- |
| CC1(C)COC(c2cc(C(F)(F)F)n(-c3ccc(NC(=O)c4c(F)cccc4F)cn3)n2)=N1 [Example 21, N-(6-(3-(4,4-Dimethyl-4,5-dihydrooxazol-2-yl)-5-(trifluoromethyl)-1H-pyrazol-1-yl)pyridin-3-yl)-2,6-difluorobenzamide] | 100 to 1000 |
| CN1N=C(c2cc(C(F)(F)F)n(-c3ccc(NC(=O)c4c(F)cccc4Cl)cn3)n2)C(C)(C)C1=O [Example 17, 2-Chloro-6-fluoro-N-(6-(1′,4′,4′-trimethyl-5′-oxo-5-(trifluoromethyl)-4′,5′-dihydro-1H,1′H-[3,3′-bipyrazol]-1-yl)pyridin-3-yl)benzamide] | 100 to 1000 |
| Cn1nc(-c2cc(C3CC3)n(-c3ccc(NC(=O)c4c(F)cccc4F)cn3)n2)oc1=O [Example 29, N-(6-(5-Cyclopropyl-3-(4-methyl-5-oxo-4,5-dihydro-1,3,4-oxadiazol-2-yl)-1H-pyrazol-1-yl)pyridin-3-yl)-2,6-difluorobenzamide] | 100 to 1000 |
| Cn1nc(-c2cc(CF)n(-c3ccc(NCc4c(F)cccc4F)cn3)n2)oc1=O [Example 5, 5-(1-(5-((2,6-Difluorobenzyl)amino)pyridin-2-yl)-5-(fluoromethyl)-1H-pyrazol-3-yl)-3-methyl-1,3,4-oxadiazol-2(3H)-one] | 100 to 1000 |
| Cn1nc(-c2cc(C(F)F)nn2-c2ccc(NC(=O)c3c(F)cccc3F)cn2)oc1=O [Example 4, N-(6-(3-(Difluoromethyl)-5-(4-methyl-5-oxo-4,5-dihydro-1,3,4-oxadiazol-2-yl)-1H-pyrazol-1-yl)pyridin-3-yl)-2,6-difluorobenzamide] | > 1000 |
| Cn1nc(-c2cc(C3CC3)nn2-c2ccc(NCc3c(F)cccc3F)cn2)oc1=O [Example 3, 5-(3-Cyclopropyl-1-(5-((2,6-difluorobenzyl)amino)pyridin-2-yl)-1H-pyrazol-5-yl)-3-methyl-1,3,4-oxadiazol-2(3H)-one] | 100 to 1000 |
| Cc1cc(-c2nn(C)c(=O)o2)nn1-c1ccc(NC(=O)c2c(F)cccc2F)cn1 [Example 31, 2,6-Difluoro-N-(6-(5-methyl-3-(4-methyl-5-oxo-4,5-dihydro-1,3,4-oxadiazol-2-yl)-1H-pyrazol-1-yl)pyridin-3-yl)benzamide] | > 1000 |
| COC(=O)C1(C)CC(c2cc(C(F)(F)F)n(-c3ccc(NCc4c(F)cccc4Cl)cn3)n2)=NO1 (centres unmarked) [Example 7, Methyl 3-(1-(5-((2-chloro-6-fluorobenzyl)amino)pyridin-2-yl)-5-(trifluoromethyl)-1H-pyrazol-3-yl)-5-methyl-4,5-dihydroisoxazole-5-carboxylate] | 100 to 1000 |
| CC(=O)N1N=C(c2cc(C(F)(F)F)n(-c3ccc(NCc4c(F)cccc4F)cn3)n2)OC1(C)C [Example 27, 1-(5-(1-(5-((2,6-Difluorobenzyl)amino)pyridin-2-yl)-5-(trifluoromethyl)-1H-pyrazol-3-yl)-2,2-dimethyl-1,3,4-oxadiazol-3(2H)-yl)ethanone] | 100 to 1000 |
| Cn1nc(-c2cc(C(F)(F)F)n(-c3ccc(NC(=O)c4ccc5ccccc5c4)nc3)n2)oc1=O [Example 50, N-(5-(3-(4-Methyl-5-oxo-4,5-dihydro-1,3,4-oxadiazol-2-yl)-5-(trifluoromethyl)-1H-pyrazol-1-yl)pyridin-2-yl)-2-naphthamide] | 100 to 1000 |
| CN1N=C(c2cc(C(F)(F)F)n(-c3ccc(NCc4c(F)cccc4F)cn3)n2)C(C)(C)C1=O [Example 24, 1′-(5-((2,6-Difluorobenzyl)amino)pyridin-2-yl)-1,4,4-trimethyl-5′-(trifluoromethyl)-1H,1′H-[3,3′-bipyrazol]-5(4H)-one] | 100 to 1000 |
| Cn1nc(-c2cc(C(F)(F)F)n(-c3ccc(C(=O)Nc4c(F)cccc4F)cn3)n2)oc1=O [Example 54, N-(2,6-Difluorophenyl)-6-(3-(4-methyl-5-oxo-4,5-dihydro-1,3,4-oxadiazol-2-yl)-5-(trifluoromethyl)-1H-pyrazol-1-yl)nicotinamide] | 100 to 1000 |
| CC1(C(N)=O)CC(c2cc(C(F)(F)F)n(-c3ccc(NC(=O)c4c(F)cccc4F)cn3)n2)=NO1 (centres unmarked) [Example 37, 3-(1-(5-(2,6-Difluorobenzamido)pyridin-2-yl)-5-(trifluoromethyl)-1H-pyrazol-3-yl)-5-methyl-4,5-dihydroisoxazole-5-carboxamide] | < 100 |
| Cn1nc(-c2cc(C(F)(F)F)n(-c3ccc(NC(=O)c4ccccc4F)nc3)n2)oc1=O [Example 41, 2-Fluoro-N-(5-(3-(4-methyl-5-oxo-4,5-dihydro-1,3,4-oxadiazol-2-yl)-5-(trifluoromethyl)-1H-pyrazol-1-yl)pyridin-2-yl)benzamide] | < 100 |
| COC(=O)C1(C)CC(c2cc(C(F)(F)F)n(-c3ccc(NCc4c(F)cccc4F)cn3)n2)=NO1 (centres unmarked) [Example 6, Methyl 3-(1-(5-((2,6-difluorobenzyl)amino)pyridin-2-yl)-5-(trifluoromethyl)-1H-pyrazol-3-yl)-5-methyl-4,5-dihydroisoxazole-5-carboxylate] | 100 to 1000 |
| CC1(C)ON=C(c2cc(C(F)(F)F)n(-c3ccc(NC(=O)c4c(F)cccc4F)cn3)n2)C1=O [Example 14, N-(6-(3-(5,5-Dimethyl-4-oxo-4,5-dihydroisoxazol-3-yl)-5-(trifluoromethyl)-1H-pyrazol-1-yl)pyridin-3-yl)-2,6-difluorobenzamide] | < 100 |

Second part, the compound after the results:

| IC50 [nM] | SMILES |
| --- | --- |
| < 100 | Cc1cc(-c2nn(C)c(=O)o2)nn1-c1ccc(NCc2c(F)cccc2F)cn1 [Example 32, 5-(1-(5-((2,6-Difluorobenzyl)amino)pyridin-2-yl)-5-methyl-1H-pyrazol-3-yl)-3-methyl-1,3,4-oxadiazol-2(3H)-one] |
| < 100 | Cn1nc(-c2cc(C(F)(F)F)n(-c3ccc(NC(=O)c4c(F)cccc4Cl)cn3)n2)oc1=O [Example 9, 2-Chloro-6-fluoro-N-(6-(3-(4-methyl-5-oxo-4,5-dihydro-1,3,4-oxadiazol-2-yl)-5-(trifluoromethyl)-1H-pyrazol-1-yl)pyridin-3-yl)benzamide] |
| < 100 | Cn1nc(-c2cc(C(F)(F)F)n(-c3ccc(NC(=O)c4cccc(F)c4F)nc3)n2)oc1=O [Example 42, 2,3-Difluoro-N-(5-(3-(4-methyl-5-oxo-4,5-dihydro-1,3,4-oxadiazol-2-yl)-5-(trifluoromethyl)-1H-pyrazol-1-yl)pyridin-2-yl)benzamide] |
| < 100 | CC1(C)ON=C(c2cc(C(F)(F)F)n(-c3ccc(NC(=O)c4c(F)cccc4Cl)cn3)n2)C1=O [Example 15, 2-Chloro-N-(6-(3-(5,5-dimethyl-4-oxo-4,5-dihydroisoxazol-3-yl)-5-(trifluoromethyl)-1H-pyrazol-1-yl)pyridin-3-yl)-6-fluorobenzamide] |
| < 100 | Cn1nc(-c2cc(C(F)(F)F)n(-c3ccc(NC(=O)c4c(F)cccc4Cl)nc3)n2)oc1=O [Example 39, 2-Chloro-6-fluoro-N-(5-(3-(4-methyl-5-oxo-4,5-dihydro-1,3,4-oxadiazol-2-yl)-5-(trifluoromethyl)-1H-pyrazol-1-yl)pyridin-2-yl)benzamide] |
| < 100 | Cn1nc(-c2cc(C(F)F)n(-c3ccc(NCc4c(F)cccc4F)cn3)n2)oc1=O [Example 12, 5-(1-(5-((2,6-Difluorobenzyl)amino)pyridin-2-yl)-5-(difluoromethyl)-1H-pyrazol-3-yl)-3-methyl-1,3,4-oxadiazol-2(3H)-one] |
| < 100 | Cn1nc(-c2cc(C(F)(F)F)n(-c3ccc(NCc4c(F)cccc4F)nc3)n2)oc1=O [Example 51, 5-(1-(6-((2,6-Difluorobenzyl)amino)pyridin-3-yl)-5-(trifluoromethyl)-1H-pyrazol-3-yl)-3-methyl-1,3,4-oxadiazol-2(3H)-one] |
| < 100 | Cn1nc(-c2cc(C(F)(F)F)n(-c3ccc(NCc4c(F)cccc4F)cn3)n2)oc1=O [Example 22, 5-(1-(5-((2,6-Difluorobenzyl)amino)pyridin-2-yl)-5-(trifluoromethyl)-1H-pyrazol-3-yl)-3-methyl-1,3,4-oxadiazol-2(3H)-one] |
| < 100 | CC1(CO)CC(c2cc(C(F)(F)F)n(-c3ccc(NC(=O)c4c(F)cccc4F)cn3)n2)=NO1 (centres unmarked) [Example 36, 2,6-Difluoro-N-(6-(3-(5-(hydroxymethyl)-5-methyl-4,5-dihydroisoxazol-3-yl)-5-(trifluoromethyl)-1H-pyrazol-1-yl)pyridin-3-yl)benzamide] |
| < 100 | Cn1nc(-c2cc(C(F)F)n(-c3ccc(NC(=O)c4c(F)cccc4F)cn3)n2)oc1=O [Example 11, N-(6-(5-(Difluoromethyl)-3-(4-methyl-5-oxo-4,5-dihydro-1,3,4-oxadiazol-2-yl)-1H-pyrazol-1-yl)pyridin-3-yl)-2,6-difluorobenzamide] |
| < 100 | Cn1nc(-c2cc(C(F)(F)F)n(-c3ccc(NC(=O)c4c(F)cccc4F)cn3)n2)oc1=O [Example 8, 2,6-Difluoro-N-(6-(3-(4-methyl-5-oxo-4,5-dihydro-1,3,4-oxadiazol-2-yl)-5-(trifluoromethyl)-1H-pyrazol-1-yl)pyridin-3-yl)benzamide] |
| < 100 | Cc1cccc(F)c1C(=O)Nc1ccc(-n2nc(-c3nn(C)c(=O)o3)cc2C(F)(F)F)nc1 [Example 10, 2-Fluoro-6-methyl-N-(6-(3-(4-methyl-5-oxo-4,5-dihydro-1,3,4-oxadiazol-2-yl)-5-(trifluoromethyl)-1H-pyrazol-1-yl)pyridin-3-yl)benzamide] |
| < 100 | Cc1ccccc1C(=O)Nc1ccc(-n2nc(-c3nn(C)c(=O)o3)cc2C(F)(F)F)cn1 [Example 48, 2-Methyl-N-(5-(3-(4-methyl-5-oxo-4,5-dihydro-1,3,4-oxadiazol-2-yl)-5-(trifluoromethyl)-1H-pyrazol-1-yl)pyridin-2-yl)benzamide] |
